Reference: the NIST ThermoML archive (doi:10.1016/j.jct.2004.12.014)

Key:
[1] = xn = mol fraction of the nth substance listed; conditions: 318.15 K, 101 kPa, Liquid
[2] = excess molar enthalpy (molar enthalpy of mixing); xn = mol fraction of the nth substance listed; conditions: 318.15 K, 101 kPa, Liquid

CCC(=O)OC [methyl propanoate] + CCCCCCC
Conditions	excess molar enthalpy [kJ/mol]	excess molar volume [m3/mol]
[1], x1 = 0.0406	–	2.5e-07
[1], x1 = 0.0927	–	5.08e-07
[1], x1 = 0.1719	–	8.36e-07
[1], x1 = 0.248	–	1.063e-06
[1], x1 = 0.3249	–	1.222e-06
[1], x1 = 0.3904	–	1.27e-06
[1], x1 = 0.4571	–	1.288e-06
[1], x1 = 0.5214	–	1.254e-06
[1], x1 = 0.5761	–	1.192e-06
[1], x1 = 0.6333	–	1.105e-06
[1], x1 = 0.6853	–	1.008e-06
[1], x1 = 0.7372	–	9.01e-07
[1], x1 = 0.7844	–	7.75e-07
[1], x1 = 0.8305	–	6.37e-07
[1], x1 = 0.8748	–	4.85e-07
[1], x1 = 0.9184	–	3.36e-07
[1], x1 = 0.9596	–	1.83e-07
[2], x1 = 0.0703	0.358	–
[2], x1 = 0.154	0.738	–
[2], x1 = 0.2369	1.04	–
[2], x1 = 0.3018	1.24	–
[2], x1 = 0.3693	1.38	–
[2], x1 = 0.4258	1.47	–
[2], x1 = 0.4809	1.51	–
[2], x1 = 0.5084	1.52	–
[2], x1 = 0.5258	1.52	–
[2], x1 = 0.5447	1.51	–
[2], x1 = 0.586	1.48	–
[2], x1 = 0.6301	1.42	–
[2], x1 = 0.6752	1.34	–
[2], x1 = 0.7232	1.23	–
[2], x1 = 0.7744	1.08	–
[2], x1 = 0.8241	0.899	–
[2], x1 = 0.8704	0.703	–
[2], x1 = 0.9177	0.47	–
[2], x1 = 0.9639	0.225	–

CCC(=O)OC [methyl propanoate] + CCCCCCCCC
Conditions	excess molar enthalpy [kJ/mol]	excess molar volume [m3/mol]
[1], x1 = 0.047	–	2.8e-07
[1], x1 = 0.111	–	5.7e-07
[1], x1 = 0.2022	–	9.27e-07
[1], x1 = 0.2873	–	1.164e-06
[1], x1 = 0.3671	–	1.333e-06
[1], x1 = 0.4381	–	1.406e-06
[1], x1 = 0.5037	–	1.425e-06
[1], x1 = 0.5664	–	1.423e-06
[1], x1 = 0.6242	–	1.359e-06
[1], x1 = 0.6768	–	1.278e-06
[1], x1 = 0.7271	–	1.166e-06
[1], x1 = 0.7724	–	1.037e-06
[1], x1 = 0.817	–	8.78e-07
[1], x1 = 0.856	–	7.5e-07
[1], x1 = 0.896	–	5.89e-07
[1], x1 = 0.9315	–	3.93e-07
[1], x1 = 0.9661	–	1.98e-07
[2], x1 = 0.084	0.463	–
[2], x1 = 0.1528	0.794	–
[2], x1 = 0.2279	1.09	–
[2], x1 = 0.2957	1.31	–
[2], x1 = 0.3549	1.46	–
[2], x1 = 0.4111	1.57	–
[2], x1 = 0.4611	1.64	–
[2], x1 = 0.5059	1.67	–
[2], x1 = 0.546	1.68	–
[2], x1 = 0.5832	1.67	–
[2], x1 = 0.6314	1.62	–
[2], x1 = 0.6645	1.55	–
[2], x1 = 0.7099	1.45	–
[2], x1 = 0.7579	1.3	–
[2], x1 = 0.808	1.12	–
[2], x1 = 0.8604	0.889	–
[2], x1 = 0.9122	0.621	–
[2], x1 = 0.9599	0.322	–

CCC(=O)OC [methyl propanoate] + CCCCCCCCCCC
Conditions	excess molar enthalpy [kJ/mol]	excess molar volume [m3/mol]
[1], x1 = 0.0968	–	4.8e-07
[1], x1 = 0.1299	–	6.34e-07
[1], x1 = 0.2313	–	1.02e-06
[1], x1 = 0.3207	–	1.285e-06
[1], x1 = 0.4052	–	1.433e-06
[1], x1 = 0.4772	–	1.508e-06
[1], x1 = 0.5465	–	1.514e-06
[1], x1 = 0.6062	–	1.482e-06
[1], x1 = 0.6609	–	1.417e-06
[1], x1 = 0.7121	–	1.302e-06
[1], x1 = 0.7581	–	1.188e-06
[1], x1 = 0.8001	–	1.041e-06
[1], x1 = 0.8396	–	9.14e-07
[1], x1 = 0.876	–	7.62e-07
[1], x1 = 0.9105	–	6.09e-07
[1], x1 = 0.9416	–	4.25e-07
[1], x1 = 0.9727	–	2.27e-07
[2], x1 = 0.0844	0.493	–
[2], x1 = 0.1733	0.916	–
[2], x1 = 0.2574	1.26	–
[2], x1 = 0.327	1.49	–
[2], x1 = 0.3915	1.65	–
[2], x1 = 0.4431	1.74	–
[2], x1 = 0.4953	1.81	–
[2], x1 = 0.5414	1.82	–
[2], x1 = 0.5798	1.82	–
[2], x1 = 0.6125	1.79	–
[2], x1 = 0.6312	1.76	–
[2], x1 = 0.6661	1.7	–
[2], x1 = 0.7078	1.6	–
[2], x1 = 0.7509	1.46	–
[2], x1 = 0.7942	1.28	–
[2], x1 = 0.8346	1.1	–
[2], x1 = 0.8799	0.88	–
[2], x1 = 0.9235	0.621	–
[2], x1 = 0.9624	0.333	–

CCCCCCCCCCCCCCC [pentadecane] + CCC(=O)OC
Conditions	excess molar enthalpy [kJ/mol]	excess molar volume [m3/mol]
[1], x2 = 0.0815	–	3.78e-07
[1], x2 = 0.1606	–	7e-07
[1], x2 = 0.2792	–	1.134e-06
[1], x2 = 0.377	–	1.401e-06
[1], x2 = 0.4695	–	1.535e-06
[1], x2 = 0.5395	–	1.586e-06
[1], x2 = 0.6103	–	1.569e-06
[1], x2 = 0.6695	–	1.514e-06
[1], x2 = 0.7187	–	1.405e-06
[1], x2 = 0.7639	–	1.277e-06
[1], x2 = 0.8034	–	1.137e-06
[1], x2 = 0.8389	–	1.001e-06
[1], x2 = 0.8718	–	8.65e-07
[1], x2 = 0.9023	–	7.29e-07
[1], x2 = 0.9297	–	5.72e-07
[1], x2 = 0.9549	–	4.07e-07
[1], x2 = 0.9781	–	2.28e-07
[2], x2 = 0.125	0.718	–
[2], x2 = 0.233	1.24	–
[2], x2 = 0.3463	1.66	–
[2], x2 = 0.435	1.91	–
[2], x2 = 0.5058	2.03	–
[2], x2 = 0.5584	2.07	–
[2], x2 = 0.6021	2.07	–
[2], x2 = 0.6368	2.04	–
[2], x2 = 0.6819	1.95	–
[2], x2 = 0.7197	1.84	–
[2], x2 = 0.7527	1.71	–
[2], x2 = 0.7913	1.54	–
[2], x2 = 0.8294	1.33	–
[2], x2 = 0.8668	1.14	–
[2], x2 = 0.9037	0.907	–
[2], x2 = 0.94	0.631	–
[2], x2 = 0.9713	0.33	–

CCCCCCCCCCCCCCC [pentadecane] + CCCCOC(=O)CC
Conditions	excess molar enthalpy [kJ/mol]	excess molar volume [m3/mol]
[1], x2 = 0.0505	–	1.65e-07
[1], x2 = 0.0965	–	3.01e-07
[1], x2 = 0.197	–	5.5e-07
[1], x2 = 0.2885	–	7.14e-07
[1], x2 = 0.372	–	8.22e-07
[1], x2 = 0.4383	–	8.58e-07
[1], x2 = 0.5036	–	8.89e-07
[1], x2 = 0.5649	–	8.8e-07
[1], x2 = 0.6245	–	8.56e-07
[1], x2 = 0.6765	–	8.1e-07
[1], x2 = 0.7278	–	7.63e-07
[1], x2 = 0.7734	–	6.88e-07
[1], x2 = 0.817	–	5.89e-07
[1], x2 = 0.8567	–	4.91e-07
[1], x2 = 0.897	–	3.82e-07
[1], x2 = 0.9328	–	2.79e-07
[1], x2 = 0.9665	–	1.56e-07
[2], x2 = 0.0761	0.33	–
[2], x2 = 0.1691	0.632	–
[2], x2 = 0.2538	0.883	–
[2], x2 = 0.3371	1.06	–
[2], x2 = 0.4082	1.17	–
[2], x2 = 0.4663	1.22	–
[2], x2 = 0.5154	1.23	–
[2], x2 = 0.5563	1.22	–
[2], x2 = 0.5938	1.21	–
[2], x2 = 0.6011	1.2	–
[2], x2 = 0.6427	1.16	–
[2], x2 = 0.6861	1.09	–
[2], x2 = 0.7321	1.01	–
[2], x2 = 0.7784	0.9	–
[2], x2 = 0.8262	0.752	–
[2], x2 = 0.8732	0.594	–
[2], x2 = 0.9184	0.409	–
[2], x2 = 0.9612	0.212	–
